From the supplement of paper PMC10307832

Legend:
Test in all cases: relative viability (nuclei count vs DMSO), 5 days (fraction); higher = more cells survive
NCI-H596 = system: NCI-H596
In short: (§1)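 After 5 days of treatment, lung cancer cells in 1536-well plates were fixed and stained in a single step (final 0.05% Triton X-100, 1% formaldehyde, 1 ug/ml Hoechst) and their nuclei counted on 4× images. Treatment had been applied by pin tool the day after seeding as one drug alone or as a fixed anchor-drug dose with five library-drug doses (not always all listed) in √10 steps. Relative viability is the nuclei count of treated wells divided by that of vehicle wells, and values are medians of duplicate plates.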

NCI-H322M = system: NCI-H322M
In short: as §1

NCI-H1651 = system: NCI-H1651
In short: as §1

NCI-H661 = system: NCI-H661
In short: as §1

LU99A = system: LU99A
In short: as §1

LCLC-97TM1 = system: LCLC-97TM1
In short: as §1

LXF-289 = system: LXF-289
In short: as §1

BEN = system: BEN
In short: as §1

LC-2-ad = system: LC-2-ad
In short: as §1

NCI-H1666 = system: NCI-H1666
In short: as §1

NCI-H1944 = system: NCI-H1944
In short: as §1

NCI-H2342 = system: NCI-H2342
In short: as §1

NCI-H358 = system: NCI-H358
In short: as §1

HCC-15 = system: HCC-15
In short: as §1

NCI-H838 = system: NCI-H838
In short: as §1

HCC-78 = system: HCC-78
In short: as §1

LK-2 = system: LK-2
In short: as §1

SK-MES-1 = system: SK-MES-1
In short: as §1

ChaGo-K-1 = system: ChaGo-K-1
In short: as §1

PC-3 [JPC-3] = system: PC-3 [JPC-3]
In short: as §1

NCI-H2087 = system: NCI-H2087
In short: as §1

NCI-H650 = system: NCI-H650
In short: as §1

UMC-11 = system: UMC-11
In short: as §1

## NC(=O)Nc1cc(-c2cccc(F)c2)sc1C(=O)N[C@H]1CCCNC1 [AZD7762] + CC(=O)Nc1cccc(-n2c(=O)n(C3CC3)c(=O)c3c(Nc4ccc(I)cc4F)n(C)c(=O)c(C)c32)c1 [Trametinib] (partner 0.02 µM)
NCI-H596; first compound 0.01 µM
  relative viability: 0.931
NCI-H596; first compound 0.03162 µM
  relative viability: 0.8
NCI-H596; first compound 0.1 µM
  relative viability: 0.923
NCI-H596; first compound 0.3162 µM
  relative viability: 0.803
NCI-H596; first compound 1 µM
  relative viability: 0.626
NCI-H322M; first compound 0.01 µM
  relative viability: 0.548
NCI-H322M; first compound 0.03162 µM
  relative viability: 0.583
NCI-H322M; first compound 0.1 µM
  relative viability: 0.526
NCI-H322M; first compound 0.3162 µM
  relative viability: 0.58
NCI-H322M; first compound 1 µM
  relative viability: 0.369
NCI-H1651; first compound 0.01 µM
  relative viability: 0.882
NCI-H1651; first compound 0.03162 µM
  relative viability: 0.852
NCI-H1651; first compound 0.1 µM
  relative viability: 0.871
NCI-H1651; first compound 0.3162 µM
  relative viability: 0.873
NCI-H1651; first compound 1 µM
  relative viability: 0.766
NCI-H661; first compound 0.01 µM
  relative viability: 0.662
NCI-H661; first compound 0.03162 µM
  relative viability: 0.569
NCI-H661; first compound 0.1 µM
  relative viability: 0.577
NCI-H661; first compound 0.3162 µM
  relative viability: 0.599
NCI-H661; first compound 1 µM
  relative viability: 0.369
LU99A; first compound 0.01 µM
  relative viability: 0.595
LU99A; first compound 0.03162 µM
  relative viability: 0.522
LU99A; first compound 0.1 µM
  relative viability: 0.523
LU99A; first compound 0.3162 µM
  relative viability: 0.586
LU99A; first compound 1 µM
  relative viability: 0.43
LCLC-97TM1; first compound 0.01 µM
  relative viability: 0.199
LCLC-97TM1; first compound 0.03162 µM
  relative viability: 0.214
LCLC-97TM1; first compound 0.1 µM
  relative viability: 0.185
LCLC-97TM1; first compound 0.3162 µM
  relative viability: 0.202
LCLC-97TM1; first compound 1 µM
  relative viability: 0.182
LXF-289; first compound 0.01 µM
  relative viability: 0.618
LXF-289; first compound 0.03162 µM
  relative viability: 0.699
LXF-289; first compound 0.1 µM
  relative viability: 0.692
LXF-289; first compound 0.3162 µM
  relative viability: 0.458
LXF-289; first compound 1 µM
  relative viability: 0.68
BEN; first compound 0.01 µM
  relative viability: 1.15
BEN; first compound 0.03162 µM
  relative viability: 1.11
BEN; first compound 0.1 µM
  relative viability: 1.09
BEN; first compound 0.3162 µM
  relative viability: 1.09
BEN; first compound 1 µM
  relative viability: 0.968
LC-2-ad; first compound 0.01 µM
  relative viability: 0.914
LC-2-ad; first compound 0.03162 µM
  relative viability: 0.9
LC-2-ad; first compound 0.1 µM
  relative viability: 0.906
LC-2-ad; first compound 0.3162 µM
  relative viability: 0.647
LC-2-ad; first compound 1 µM
  relative viability: 0.544
NCI-H1666; first compound 0.01 µM
  relative viability: 0.894
NCI-H1666; first compound 0.03162 µM
  relative viability: 0.898
NCI-H1666; first compound 0.1 µM
  relative viability: 0.927
NCI-H1666; first compound 0.3162 µM
  relative viability: 0.891
NCI-H1666; first compound 1 µM
  relative viability: 0.901
NCI-H1944; first compound 0.01 µM
  relative viability: 0.443
NCI-H1944; first compound 0.03162 µM
  relative viability: 0.493
NCI-H1944; first compound 0.1 µM
  relative viability: 0.473
NCI-H1944; first compound 0.3162 µM
  relative viability: 0.523
NCI-H1944; first compound 1 µM
  relative viability: 0.496
NCI-H2342; first compound 0.01 µM
  relative viability: 0.861
NCI-H2342; first compound 0.03162 µM
  relative viability: 0.756
NCI-H2342; first compound 0.1 µM
  relative viability: 0.828
NCI-H2342; first compound 0.3162 µM
  relative viability: 0.863
NCI-H2342; first compound 1 µM
  relative viability: 0.97
NCI-H358; first compound 0.01 µM
  relative viability: 0.136
NCI-H358; first compound 0.03162 µM
  relative viability: 0.135
NCI-H358; first compound 0.1 µM
  relative viability: 0.148
NCI-H358; first compound 0.3162 µM
  relative viability: 0.145
NCI-H358; first compound 1 µM
  relative viability: 0.1
HCC-15; first compound 0.01 µM
  relative viability: 0.407
HCC-15; first compound 0.03162 µM
  relative viability: 0.393
HCC-15; first compound 0.1 µM
  relative viability: 0.413
HCC-15; first compound 0.3162 µM
  relative viability: 0.351
HCC-15; first compound 1 µM
  relative viability: 0.443
NCI-H838; first compound 0.01 µM
  relative viability: 0.632
NCI-H838; first compound 0.03162 µM
  relative viability: 0.513
NCI-H838; first compound 0.1 µM
  relative viability: 0.483
NCI-H838; first compound 0.3162 µM
  relative viability: 0.537
NCI-H838; first compound 1 µM
  relative viability: 0.305
HCC-78; first compound 0.01 µM
  relative viability: 0.937
HCC-78; first compound 0.03162 µM
  relative viability: 0.864
HCC-78; first compound 0.1 µM
  relative viability: 0.828
HCC-78; first compound 0.3162 µM
  relative viability: 0.969
HCC-78; first compound 1 µM
  relative viability: 0.416
LK-2; first compound 0.01 µM
  relative viability: 0.794
LK-2; first compound 0.03162 µM
  relative viability: 0.552
LK-2; first compound 0.1 µM
  relative viability: 0.845
LK-2; first compound 0.3162 µM
  relative viability: 0.617
LK-2; first compound 1 µM
  relative viability: 0.562
SK-MES-1; first compound 0.01 µM
  relative viability: 0.543
SK-MES-1; first compound 0.03162 µM
  relative viability: 0.535
SK-MES-1; first compound 0.1 µM
  relative viability: 0.559
SK-MES-1; first compound 0.3162 µM
  relative viability: 0.347
SK-MES-1; first compound 1 µM
  relative viability: 0.227
ChaGo-K-1; first compound 0.01 µM
  relative viability: 0.871
ChaGo-K-1; first compound 0.03162 µM
  relative viability: 0.914
ChaGo-K-1; first compound 0.1 µM
  relative viability: 0.93
ChaGo-K-1; first compound 0.3162 µM
  relative viability: 0.9
ChaGo-K-1; first compound 1 µM
  relative viability: 0.958
PC-3 [JPC-3]; first compound 0.01 µM
  relative viability: 0.699
PC-3 [JPC-3]; first compound 0.03162 µM
  relative viability: 0.722
PC-3 [JPC-3]; first compound 0.1 µM
  relative viability: 0.69
PC-3 [JPC-3]; first compound 0.3162 µM
  relative viability: 0.662
PC-3 [JPC-3]; first compound 1 µM
  relative viability: 0.515
NCI-H2087; first compound 0.01 µM
  relative viability: 0.211
NCI-H2087; first compound 0.03162 µM
  relative viability: 0.212
NCI-H2087; first compound 0.1 µM
  relative viability: 0.248
NCI-H2087; first compound 0.3162 µM
  relative viability: 0.333
NCI-H2087; first compound 1 µM
  relative viability: 0.254
NCI-H650; first compound 0.01 µM
  relative viability: 0.984
NCI-H650; first compound 0.03162 µM
  relative viability: 1.08
NCI-H650; first compound 0.1 µM
  relative viability: 1.05
NCI-H650; first compound 0.3162 µM
  relative viability: 1.04
NCI-H650; first compound 1 µM
  relative viability: 0.756
UMC-11; first compound 0.01 µM
  relative viability: 0.678
UMC-11; first compound 0.03162 µM
  relative viability: 0.696
UMC-11; first compound 0.1 µM
  relative viability: 0.656
UMC-11; first compound 0.3162 µM
  relative viability: 0.665
UMC-11; first compound 1 µM
  relative viability: 0.33
